What was measured:
Experiment in all cases: relative viability (nuclei count vs DMSO), 5 days (fraction); higher = more cells survive
kb NB 142-70 + OSI-027 = compound: C1CSC2=C(C(=O)N1)SC3=C2C=C(C=C3)O [kb NB 142-70] + COc1cccc2cc(-c3nc([C@H]4CC[C@H](C(=O)O)CC4)n4ncnc(N)c34)[nH]c12 [OSI-027] (partner 0.5 µM)
Outline: (§1)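 Relative viability was taken as the ratio of nuclei in treated wells to nuclei in vehicle wells. Lung cancer cell lines in 1536-well plates received compounds by pin tool one day after seeding, either one drug alone or a fixed anchor-drug dose plus five library-drug doses (not always all listed) in √10 steps. Nuclei were counted on 4× images after 5 days of treatment, and values are medians of duplicate plates.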

[1] = compound: NCC(=O)Nc1ccc(-n2nc(C(F)(F)F)cc2-c2ccc3c(ccc4ccccc43)c2)cc1 + CCNC(=O)c1noc(-c2cc(C(C)C)c(O)cc2O)c1-c1ccc(CN2CCOCC2)cc1 [Luminespib] (partner 0.01 µM)
Outline: as §1

[2] = compound: NCC(=O)Nc1ccc(-n2nc(C(F)(F)F)cc2-c2ccc3c(ccc4ccccc43)c2)cc1 + Cc1nc(NC(=O)N2CCC[C@H]2C(N)=O)sc1-c1ccnc(C(C)(C)C(F)(F)F)c1 [Alpelisib] (partner 2 µM)
Outline: as §1

[3] = compound: C1CSC2=C(C(=O)N1)SC3=C2C=C(C=C3)O [kb NB 142-70] + N=C(N)NC(=N)NCCc1ccccc1 [Phenformin] (partner 250 µM)
Outline: as §1

kb NB 142-70 + Lapatinib = compound: C1CSC2=C(C(=O)N1)SC3=C2C=C(C=C3)O [kb NB 142-70] + CS(=O)(=O)CCNCc1ccc(-c2ccc3ncnc(Nc4ccc(OCc5cccc(F)c5)c(Cl)c4)c3c2)o1 [Lapatinib] (partner 2 µM)
Outline: as §1

Cell Line	relative viability (kb NB 142-70 + OSI-027; first compound 0.1 µM)	relative viability (kb NB 142-70 + OSI-027; first compound 1 µM)	relative viability (kb NB 142-70 + OSI-027; first compound 3.162 µM)	relative viability ([1]; first compound 0.02 µM)	relative viability ([1]; first compound 0.06325 µM)	relative viability ([1]; first compound 0.2 µM)	relative viability ([1]; first compound 0.6325 µM)	relative viability ([1]; first compound 2 µM)	relative viability ([2]; first compound 0.02 µM)	relative viability ([2]; first compound 0.06325 µM)	relative viability ([2]; first compound 0.2 µM)	relative viability ([2]; first compound 0.6325 µM)	relative viability ([2]; first compound 2 µM)	relative viability ([3]; first compound 0.1 µM)	relative viability ([3]; first compound 1 µM)	relative viability ([3]; first compound 3.162 µM)	relative viability (kb NB 142-70 + Lapatinib; first compound 0.1 µM)	relative viability (kb NB 142-70 + Lapatinib; first compound 1 µM)	relative viability (kb NB 142-70 + Lapatinib; first compound 3.162 µM)
NCI-H647	0.575	0.568	0.601	0.26	0.151	0.146	0.181	0.252	1.31	1.15	1.21	1.12	0.982	0.502	0.54	0.44	1.11	1.08	0.836
SK-MES-1	0.653	0.676	0.27	0.828	0.904	0.897	0.842	0.802	1.02	0.981	0.925	0.816	0.919	0.754	0.658	0.407	0.448	0.503	0.541
NCI-H2170	0.699	0.694	0.588	0.738	0.7	0.552	0.75	0.616	0.782	0.716	0.823	0.886	0.88	0.429	0.405	0.395	0.295	0.305	0.258
NCI-H2085	0.878	0.876	0.388	0.537	0.473	0.466	0.445	0.472	0.963	0.978	0.943	0.972	0.965	0.706	0.756	0.371	0.764	0.727	0.48
SW 1573	0.618	0.47	0.266	0.252	0.151	0.151	0.677	0.209	0.782	0.741	0.807	0.75	0.765	0.378	0.264	0.175	1.03	0.877	0.988
NCI-H727	0.716	0.583	0.67	0.325	0.352	0.322	0.32	0.401	0.636	0.561	0.614	0.531	0.686	0.585	0.714	0.605	0.808	1.03	0.905
LOU-NH91	0.699	0.695	0.651	0.334	0.38	0.314	0.339	0.352	0.789	0.788	0.702	0.775	0.799	0.615	0.741	0.632	0.724	0.73	0.581
NCI-H3122	0.922	0.919	0.726	0.0686	0.0831	0.127	0.113	0.116	0.852	0.847	0.801	0.823	0.746	0.412	0.396	0.347	0.872	1.01	0.947

From the supplement of paper PMC10307832
